This passage reports AUC(0-t), Kp and IC50 results from US20210332036A1, “PYRIMIDINE AND PYRAZINE HDAC1,2 INHIBITORS” (REGENACY PHARMACEUTICALS, LLC, priority 2018, published 2021).

Molecules are shown by their SMILES.

The nature of series [1]: PK parameters, IV dosing (plasma and brain exposure). The class given is in vivo. The arrangement: AUC(0-t): concentration or dose not given beside the values. The note with it: Mouse IV; for Kp: brain/plasma, read-out: Brain AUC/Plasma AUC. How it is done:
[The procedure below names another organism; the source lists this organism under the same test.] Male SD rats were fasted overnight. Compounds of the invention were dissolved in dimethyl acetamide at 10 times the final concentration, then Solutol HS 15 (BASF) was added to a final concentration of 10%. Finally 80% saline was added and vortexed to achieve a clear solution. For the IV dosing three animals were injected via the foot dorsal vein with 1 mg/kg compound. For the PO dosing 5 mg/kg of compound was delivered by oral gavage. Blood was collected via the tail vein into K2EDTA tubes at 5 minutes, 15 minutes, 30 minutes, 1 hour, 2 hours, 4 hours, 8 hours and 24 hours after dosing. The blood was centrifuged at 2000 g for 5 minutes at 4° C. to obtain plasma. The plasma was extracted with acetonitrile and the level of compound was analyzed by LC/MS/MS. The level of compound in plasma was calculated from a standard curve in rat plasma. The IV clearance (L/h/kg) and area under the curve (h*ng/mL) were calculated using WinNonLin software. The dose adjusted area under the curve for the IV and oral dosing were used to calculate the oral bioavailability.
Pharmacokinetic properties were assessed in a rat cassette dosing experiment. The IV clearance (IV Clr.) is in units of L/hr/kg. The oral maximum plasma concentration (PO Cmax) is in units of ng/ml. The oral plasma half-life (PO T1/2) is in units of hours. The oral area under the curve (PO AUC) is in units of hours*ng/ml. The fraction absorbed by the oral route (F %) is a percentage of the oral area under the curve to the IV area under the curve, dose adjusted.

The nature of series [2]: PK parameters, IP dosing (plasma and brain exposure). It is filed as in vivo. The note with it: Mouse IP; for Kp: brain/plasma, read-out: Brain AUC/Plasma AUC. More on the design: AUC(0-t): concentration or dose not given beside the values.
For a further series, the target named is T1, HDAC1 (Homo sapiens, UniProt Q13547).
T1 construct: purchased BPS Biosciences
T1 sequence (Q13547 whole entry): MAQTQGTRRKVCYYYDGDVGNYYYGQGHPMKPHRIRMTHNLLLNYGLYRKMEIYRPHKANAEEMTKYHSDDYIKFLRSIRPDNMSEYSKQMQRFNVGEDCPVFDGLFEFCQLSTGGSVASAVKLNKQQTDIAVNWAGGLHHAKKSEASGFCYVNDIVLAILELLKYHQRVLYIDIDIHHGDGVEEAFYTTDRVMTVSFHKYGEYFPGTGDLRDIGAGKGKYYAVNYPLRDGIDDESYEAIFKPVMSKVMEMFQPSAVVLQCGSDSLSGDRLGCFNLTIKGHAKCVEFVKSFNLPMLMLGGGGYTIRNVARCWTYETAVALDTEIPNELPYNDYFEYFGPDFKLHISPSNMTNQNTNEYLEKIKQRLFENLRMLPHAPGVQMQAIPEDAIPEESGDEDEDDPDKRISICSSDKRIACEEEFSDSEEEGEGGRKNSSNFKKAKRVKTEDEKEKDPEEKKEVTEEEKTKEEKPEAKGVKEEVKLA
Put plainly: HDAC enzyme assay, HDAC1. It is filed as biochemical. The note with it: 16 μM substrate, 10 min preincubation. The method, then:
(§1) Compounds for testing were diluted in DMSO to 50 fold the final concentration and a ten-point three-fold dilution series was made. The compounds were diluted in assay buffer (50 mM HEPES, pH 7.4, 100 mM KCl, 0.001% Tween-20, 0.05% BSA, 20 μM TCEP) to 6-fold their final concentration. The HDAC enzymes (purchased from BPS Biosciences) were diluted to 1.5-fold their final concentration in assay buffer. The tripeptide substrate and trypsin at 0.05 μM final concentration were diluted in assay buffer at 6-fold their final concentration. The final enzyme concentrations used in these assays were 3.3 ng/ml (HDAC1), 0.2 ng/ml (HDAC2) and 0.08 ng/ml (HDAC3). The final substrate concentrations used were 16 μM (HDAC1), 10 μM (HDAC2) and 17 μM (HDAC3).
(§2) Five μl of compounds and 20 μl of enzyme were added to wells of a black, opaque 384 well plate in duplicate. Enzyme and compound were incubated together at room temperature for 10 minutes. Five μl of substrate was added to each well, the plate was shaken for 60 seconds and placed into a Victor 2 microtiter plate reader. The development of fluorescence was monitored for 60 min and the linear rate of the reaction was calculated. The IC50 was determined using Graph Pad Prism by a four parameter curve fit.

The target of another series is T2, HDAC2 (Homo sapiens, UniProt Q92769).
T2 construct: purchased BPS Biosciences
T2 sequence (Q92769 whole entry): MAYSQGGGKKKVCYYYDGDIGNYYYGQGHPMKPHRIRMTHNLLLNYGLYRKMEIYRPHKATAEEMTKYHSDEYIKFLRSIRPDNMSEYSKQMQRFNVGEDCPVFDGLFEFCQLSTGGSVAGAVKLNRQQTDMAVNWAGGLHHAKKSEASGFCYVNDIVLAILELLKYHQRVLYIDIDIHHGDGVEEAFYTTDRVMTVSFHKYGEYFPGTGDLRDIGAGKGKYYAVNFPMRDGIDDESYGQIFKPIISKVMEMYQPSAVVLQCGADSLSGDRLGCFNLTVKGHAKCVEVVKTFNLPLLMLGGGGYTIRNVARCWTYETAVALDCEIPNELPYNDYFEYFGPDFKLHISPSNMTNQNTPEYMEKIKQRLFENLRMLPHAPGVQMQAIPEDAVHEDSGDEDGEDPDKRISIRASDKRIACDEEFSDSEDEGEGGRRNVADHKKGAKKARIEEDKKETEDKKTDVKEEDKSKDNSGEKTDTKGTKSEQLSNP
Put plainly: HDAC enzyme assay, HDAC2. It is filed as biochemical. The note with it: 10 μM substrate, 10 min preincubation. How it is done: as §1, §2

For a further series, the target named is T3, HDAC3 (Homo sapiens, UniProt O15379).
T3 construct: purchased BPS Biosciences
T3 sequence (O15379 whole entry): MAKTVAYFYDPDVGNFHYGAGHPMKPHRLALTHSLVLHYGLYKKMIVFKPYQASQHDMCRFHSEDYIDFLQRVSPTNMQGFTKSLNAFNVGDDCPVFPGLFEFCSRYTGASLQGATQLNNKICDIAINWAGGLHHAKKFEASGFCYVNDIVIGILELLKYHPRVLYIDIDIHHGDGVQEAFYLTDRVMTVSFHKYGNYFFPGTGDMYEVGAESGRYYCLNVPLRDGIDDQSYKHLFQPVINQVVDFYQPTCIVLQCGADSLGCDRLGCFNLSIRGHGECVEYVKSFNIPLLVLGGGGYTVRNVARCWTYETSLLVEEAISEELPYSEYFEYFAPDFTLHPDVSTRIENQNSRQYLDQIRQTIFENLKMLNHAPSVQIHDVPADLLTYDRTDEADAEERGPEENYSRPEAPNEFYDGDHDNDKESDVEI
T3 sequence (Q9Y618 395-489 partner limits assumed): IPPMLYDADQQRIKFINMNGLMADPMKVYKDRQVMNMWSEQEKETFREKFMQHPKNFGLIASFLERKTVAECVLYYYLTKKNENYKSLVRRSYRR
Description: HDAC enzyme assay, HDAC3. The conditions noted are these: 17 μM substrate, 10 min preincubation. The class given is biochemical. How it is done:
as §1, §2

[3] abbreviates: brain, read-out: AUC(last) Brain.
Where [4] appears, read: plasma, read-out: AUC(last) Plasma.

Usually IC50 stands for the point on the concentration scale where inhibition reaches its midpoint. Take `Cc1ccc(-c2ccc(N)c(NC(=O)c3ccc(N4CCNCC4)cn3)c2)cc1` [Compound 001]: the AUC(0-t) lay in the range of 19000 to 20000 ng·h/mL in series [1] (setting [3]), 1400 to 1500 ng·h/mL in series [1] (setting [4]), 64700 to 64800 ng·h/mL in series [2] (setting [3]) and 6700 to 6800 ng·h/mL in series [2] (setting [4]). The Kp in series [1] was in the range of 10 to 15; in series [2] it was 1 to 5. Moreover, the IC50 on HDAC1 lay in the range of 10 to 20 nM; against HDAC2, 30 to 40 nM; at HDAC3, 480 to 490 nM.

Take `Nc1cc(F)c(-c2cccs2)cc1NC(=O)c1ccc(N2CCNCC2)cn1` [Compound 002]: the AUC(0-t) fell in the range of 9000 to 10000 ng·h/mL in series [1] (setting [3]), 400 to 500 ng·h/mL in series [1] (setting [4]), 23100 to 23200 ng·h/mL in series [2] (setting [3]) and 2400 to 2500 ng·h/mL in series [2] (setting [4]). The Kp in series [1] fell in the range of 20 to 25; in series [2] it was 5 to 10. Further, the IC50 lay within 1 to 10 nM against HDAC1, 10 to 20 nM at HDAC2 and 200 to 210 nM against HDAC3.

As to `Nc1ccc(-c2ccccc2)cc1NC(=O)c1ccc(N2CCNCC2)nn1` [Compound 003], the AUC(0-t) was 3000 to 4000 ng·h/mL in series [1] (setting [3]), 1000 to 1100 ng·h/mL in series [1] (setting [4]), 7900 to 8000 ng·h/mL in series [2] (setting [3]) and 4700 to 4800 ng·h/mL in series [2] (setting [4]). For the same compound, the Kp in series [1] and in series [2] was 1 to 5 each time. The figures for the IC50 on HDAC1, against HDAC2 and at HDAC3 were 1 to 10 nM, 20 to 30 nM and 170 to 180 nM, respectively.

As to `COCCOc1ccc(C(=O)Nc2cc(-c3cccs3)ccc2N)nc1` [Compound 004], the AUC(0-t) fell in the range of 500 to 600 ng·h/mL in series [1] (setting [3]), 700 to 800 ng·h/mL in series [1] (setting [4]), 2100 to 2200 ng·h/mL in series [2] (setting [3]) and 2300 to 2400 ng·h/mL in series [2] (setting [4]). For the same compound, the Kp in series [1] and in series [2] was 0.1 to 1.5 in each case. In addition, the IC50 against HDAC1 was in the range of 1 to 10 nM; on HDAC2, 50 to 60 nM; on HDAC3, 440 to 450 nM.

`Nc1ccc(-c2cccs2)cc1NC(=O)c1ccc(OCCO)cn1` [Compound 005]: the AUC(0-t) lay in the range of 600 to 700 ng·h/mL in series [1] (setting [3]), 600 to 700 ng·h/mL in series [1] (setting [4]), 2000 to 2100 ng·h/mL in series [2] (setting [3]) and 2300 to 2400 ng·h/mL in series [2] (setting [4]). For the same compound, the Kp was in the range of 0.8 to 1.2 in series [1] and 0.1 to 1.5 in series [2]. Further, the IC50 was in the range of 1 to 10 nM against HDAC1, 10 to 20 nM on HDAC2 and 110 to 120 nM against HDAC3.

Take `CN1CCN(c2cnc(C(=O)Nc3cc(-c4cccs4)ccc3N)nc2)CC1` [Compound 006]: the AUC(0-t) in series [1] (setting [3]) is 700 to 800 ng·h/mL; in series [1] (setting [4]), 200 to 300 ng·h/mL; in series [2] (setting [3]), 700 to 800 ng·h/mL; in series [2] (setting [4]), 800 to 900 ng·h/mL. The values for the Kp in series [1] and in series [2] were 2 to 4 and 0.1 to 1.5, respectively. For the same compound, the results for the IC50 at HDAC1, on HDAC2 and at HDAC3 were 1 to 10 nM, 40 to 50 nM and 80 to 90 nM, respectively.

As to `Nc1ccc(-c2cccs2)cc1NC(=O)c1ncc(N2CCNCC2)cn1` [Compound 007], the AUC(0-t) fell in the range of 30 to 40 ng·h/mL in series [1] (setting [3]), 400 to 500 ng·h/mL in series [1] (setting [4]), 900 to 1000 ng·h/mL in series [2] (setting [3]) and 1800 to 1900 ng·h/mL in series [2] (setting [4]). In addition, the Kp in series [1] is 0.01 to 0.1; in series [2], 0.1 to 1.5. In addition, the results for the IC50 against HDAC1, against HDAC2 and against HDAC3 were 10 to 20 nM, 90 to 100 nM and 170 to 180 nM, respectively.

Consider `COCCOc1ccc(C(=O)Nc2cc(-c3cccs3)ccc2N)nn1` [Compound 008], for which the AUC(0-t) in series [1] (setting [3]) lay within 200 to 300 ng·h/mL; in series [1] (setting [4]), 600 to 700 ng·h/mL; in series [2] (setting [3]), 1300 to 1400 ng·h/mL; in series [2] (setting [4]), 2900 to 3000 ng·h/mL. The Kp in series [1] and in series [2] was 0.1 to 1.5 throughout. Moreover, the IC50 at HDAC1 was in the range of 1 to 10 nM; against HDAC2, 20 to 30 nM; on HDAC3 it was 260 to 270 nM.
